From patent US12054483B2, “Small molecule inhibitors of DYRK/CLK and uses thereof” (Arizona Board of Regents on Behalf of the University of …, priority 2018, dated 2024)

Target: DYRK1A (Homo sapiens, UniProt Q13627)
Assay: Affinity testing of compounds with DYRK1A (KD)
Format: binding
Settings: DYRK1A affinity key classes

Compound: Cc1nc2ccc(-c3ccnc4[nH]ccc34)nc2n1-c1cccc(CN2CCOCC2)c1 [Compound 178, 4-(3-(2-methyl-5-(1H-pyrrolo[2,3-b]pyridin-4-yl)-3H-imidazo[4,5-b]pyridin-3-yl)benzyl)morpholine]
- Kd: 0.5 to 100 nM

Compound: Cc1nc2ccc(-c3ccnc4[nH]ccc34)nc2n1-c1ccc(CN2CCOCC2)cc1 [Compound 179, 4-(4-(2-methyl-5-(1H-pyrrolo[2,3-b]pyridin-4-yl)-3H-imidazo[4,5-b]pyridin-3-yl)benzyl)morpholine]
- Kd: 0.5 to 100 nM

Compound: Cc1nc2cnc(-c3ccnc(N)c3)cc2n1-c1cccc(CN2CCOCC2)c1 [Compound 180, 4-(2-methyl-1-(3-(morpholinomethyl)phenyl)-1H-imidazo[4,5-c]pyridin-6-yl)pyridin-2-amine]
- Kd: 101 to 500 nM

Compound: Cc1nc2ccc(-c3ccnc(N)c3)nc2n1-c1ccc(N2C[C@@H](C)O[C@@H](C)C2)c(F)c1 [Compound 181, 4-(3-(4-((2S,6R)-2,6-dimethylmorpholino)-3-fluorophenyl)-2-methyl-3H-imidazo[4,5-b]pyridin-5-yl)pyridin-2-amine]
- Kd: 0.5 to 100 nM

Compound: Cc1nc2ccc(-c3ccnc(N)c3)nc2n1-c1ccc(N2CCS(=O)(=O)CC2)c(F)c1 [Compound 182, 4-(4-(5-(2-aminopyridin-4-yl)-2-methyl-3H-imidazo[4,5-b]pyridin-3-yl)-2-fluorophenyl)thiomorpholine 1,1-dioxide]
- Kd: 0.5 to 100 nM

Compound: Cc1nc2ccc(-c3ccnc(N)c3)nc2n1-c1ccc(N2C[C@H](C)O[C@@H](C)C2)c(F)c1 [Compound 183, 4-(3-(4-((2S,6S)-2,6-dimethylmorpholino)-3-fluorophenyl)-2-methyl-3H-imidazo[4,5-b]pyridin-5-yl)pyridin-2-amine]
- Kd: 0.5 to 100 nM

Compound: CC(=O)N1CCN(c2ccc(-n3c(C)nc4ccc(-c5ccnc(N)c5)nc43)cc2F)CC1 [Compound 184]
- Kd: 0.5 to 100 nM
